Assay results published in ChEMBL document CHEMBL3045439, “Isoforms of the heteropteran Nezara viridula ecdysone receptor: protein characterisation, RH5992 insecticide binding and homology modelling” (Pest Manag Sci, 2011).

Key:
Type in all cases: protein-complex assay
Ecdysone receptor [1] = target: T1, Ecdysone receptor (Spodoptera frugiperda, UniProt Q8MWR1+Q8MWR2); experiment: Binding affinity to Spodoptera frugiperda (fall armyworm) EcR
T1 sequence (Q8MWR2 whole entry): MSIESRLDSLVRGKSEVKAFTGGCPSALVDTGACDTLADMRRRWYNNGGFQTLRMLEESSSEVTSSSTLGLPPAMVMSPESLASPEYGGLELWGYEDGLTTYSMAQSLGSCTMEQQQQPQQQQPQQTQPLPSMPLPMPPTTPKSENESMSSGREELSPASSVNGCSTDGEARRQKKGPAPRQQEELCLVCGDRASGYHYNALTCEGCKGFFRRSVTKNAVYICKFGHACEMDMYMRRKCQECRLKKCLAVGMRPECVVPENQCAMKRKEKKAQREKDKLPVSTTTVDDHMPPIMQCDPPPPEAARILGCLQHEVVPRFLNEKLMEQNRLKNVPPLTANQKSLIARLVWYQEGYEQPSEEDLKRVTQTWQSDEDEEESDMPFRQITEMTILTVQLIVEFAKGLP
T1 sequence (Q8MWR1 whole entry): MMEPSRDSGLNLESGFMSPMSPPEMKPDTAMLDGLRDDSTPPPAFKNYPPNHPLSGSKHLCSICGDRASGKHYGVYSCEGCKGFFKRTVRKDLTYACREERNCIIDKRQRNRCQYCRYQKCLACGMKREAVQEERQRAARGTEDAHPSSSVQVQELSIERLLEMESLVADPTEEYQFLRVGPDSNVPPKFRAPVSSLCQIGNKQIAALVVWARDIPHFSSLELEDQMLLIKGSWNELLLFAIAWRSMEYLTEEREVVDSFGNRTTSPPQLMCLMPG

Ecdysone receptor [2] = target: T2, Ecdysone receptor (Nezara viridula, UniProt E5L6Y0+E5L6Y1); experiment: Binding affinity to Nezara viridula EcR10
T2 sequence (E5L6Y1 whole entry): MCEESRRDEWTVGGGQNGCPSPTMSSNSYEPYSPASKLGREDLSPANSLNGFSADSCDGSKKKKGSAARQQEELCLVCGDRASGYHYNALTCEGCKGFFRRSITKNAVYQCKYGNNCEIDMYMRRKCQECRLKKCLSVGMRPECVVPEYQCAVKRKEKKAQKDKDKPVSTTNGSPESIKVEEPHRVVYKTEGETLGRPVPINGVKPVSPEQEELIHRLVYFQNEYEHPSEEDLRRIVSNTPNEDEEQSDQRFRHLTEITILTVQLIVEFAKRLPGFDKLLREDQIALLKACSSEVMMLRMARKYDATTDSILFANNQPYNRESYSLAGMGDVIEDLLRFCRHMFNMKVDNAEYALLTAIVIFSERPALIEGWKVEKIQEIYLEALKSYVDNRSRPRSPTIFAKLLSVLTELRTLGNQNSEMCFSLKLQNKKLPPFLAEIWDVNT
T2 sequence (E5L6Y0 whole entry): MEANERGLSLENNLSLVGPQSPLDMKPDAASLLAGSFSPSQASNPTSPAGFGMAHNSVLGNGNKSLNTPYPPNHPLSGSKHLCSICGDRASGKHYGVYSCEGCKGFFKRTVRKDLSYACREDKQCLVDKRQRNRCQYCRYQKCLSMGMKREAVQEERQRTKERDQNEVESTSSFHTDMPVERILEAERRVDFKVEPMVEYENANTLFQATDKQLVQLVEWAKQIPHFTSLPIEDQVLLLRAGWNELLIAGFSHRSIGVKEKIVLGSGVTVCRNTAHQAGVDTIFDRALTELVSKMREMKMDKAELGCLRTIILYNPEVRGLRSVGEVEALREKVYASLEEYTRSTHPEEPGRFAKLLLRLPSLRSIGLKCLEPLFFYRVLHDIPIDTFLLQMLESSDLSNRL

Ecdysone receptor [3] = target: T3, Ecdysone receptor (Heliothis virescens, UniProt O18473+Q7SIF6); experiment: Binding affinity to Heliothis virescens (tobacco budworm) EcR
T3 sequence (O18473 whole entry): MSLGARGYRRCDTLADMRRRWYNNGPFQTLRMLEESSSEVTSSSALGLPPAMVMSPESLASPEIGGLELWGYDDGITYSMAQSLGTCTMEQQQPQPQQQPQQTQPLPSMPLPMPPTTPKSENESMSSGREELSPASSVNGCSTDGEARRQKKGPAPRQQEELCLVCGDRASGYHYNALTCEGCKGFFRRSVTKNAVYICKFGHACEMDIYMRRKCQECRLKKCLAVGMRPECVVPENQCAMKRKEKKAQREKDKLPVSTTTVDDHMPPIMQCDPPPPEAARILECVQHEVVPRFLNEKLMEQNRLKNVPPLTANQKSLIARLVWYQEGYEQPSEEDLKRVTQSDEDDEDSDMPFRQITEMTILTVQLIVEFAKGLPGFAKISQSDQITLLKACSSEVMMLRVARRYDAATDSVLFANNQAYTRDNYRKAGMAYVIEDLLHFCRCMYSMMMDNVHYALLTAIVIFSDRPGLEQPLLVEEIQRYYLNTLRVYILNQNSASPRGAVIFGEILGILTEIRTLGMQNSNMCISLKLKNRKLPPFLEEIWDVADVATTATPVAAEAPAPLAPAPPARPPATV
T3 sequence (Q7SIF6 whole entry): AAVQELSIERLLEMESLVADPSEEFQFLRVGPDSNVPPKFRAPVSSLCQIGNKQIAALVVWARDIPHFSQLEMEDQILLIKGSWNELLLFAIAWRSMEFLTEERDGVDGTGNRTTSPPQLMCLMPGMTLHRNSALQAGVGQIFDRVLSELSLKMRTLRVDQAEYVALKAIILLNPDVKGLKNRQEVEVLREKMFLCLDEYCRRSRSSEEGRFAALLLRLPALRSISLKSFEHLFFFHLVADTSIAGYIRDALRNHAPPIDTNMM

Compound | IC50 (Ecdysone receptor [1]) [nM] | Ki (Ecdysone receptor [2]) [nM] | Ki (Ecdysone receptor [3]) [nM]
CC(C)(O)CC[C@@H](O)[C@](C)(O)[C@H]1CC[C@@]2(O)C3=CC(=O)[C@@H]4C[C@@H](O)[C@@H](O)C[C@]4(C)[C@H]3CC[C@]12C [20-HYDROXYECDYSONE] | 166 |  | 
CCc1ccc(C(=O)NN(C(=O)c2cc(C)cc(C)c2)C(C)(C)C)cc1 [TEBUFENOZIDE] |  | 20000 | 3.16
